Assay results as given in the supplement of paper PMC10307832.

Assays:
Assay in all cases: relative viability (nuclei count vs DMSO), 5 days (fraction); higher = more cells survive
NCI-H1993 = system: NCI-H1993
Procedure, shortened: (§1)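 Medians of duplicate plates are given as relative viability. That measure is the nuclei count in treated wells divided by the count in vehicle wells. Counts were taken on 4× images of lung cancer cell lines in 1536-well plates, 5 days after pin-tool dosing the day after seeding with one drug alone or a fixed anchor-drug dose plus five library-drug doses (not always all listed) in √10 steps.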

NCI-H650 = system: NCI-H650
Procedure, shortened: as §1

BEN = system: BEN
Procedure, shortened: as §1

LU99A = system: LU99A
Procedure, shortened: as §1

HOP-62 = system: HOP-62
Procedure, shortened: as §1

NCI-H2347 = system: NCI-H2347
Procedure, shortened: as §1

ChaGo-K-1 = system: ChaGo-K-1
Procedure, shortened: as §1

NCI-H1793 = system: NCI-H1793
Procedure, shortened: as §1

NCI-H441 = system: NCI-H441
Procedure, shortened: as §1

NCI-H2009 = system: NCI-H2009
Procedure, shortened: as §1

LXF-289 = system: LXF-289
Procedure, shortened: as §1

CAL-12T = system: CAL-12T
Procedure, shortened: as §1

COR-L 105 = system: COR-L 105
Procedure, shortened: as §1

NCI-H1975 = system: NCI-H1975
Procedure, shortened: as §1

NCI-H358 = system: NCI-H358
Procedure, shortened: as §1

SK-MES-1 = system: SK-MES-1
Procedure, shortened: as §1

NCI-H2342 = system: NCI-H2342
Procedure, shortened: as §1

EPLC-272H = system: EPLC-272H
Procedure, shortened: as §1

NCI-H460 = system: NCI-H460
Procedure, shortened: as §1

A-427 = system: A-427
Procedure, shortened: as §1

NCI-H1395 = system: NCI-H1395
Procedure, shortened: as §1

LCLC-103H = system: LCLC-103H
Procedure, shortened: as §1

NCI-H1666 = system: NCI-H1666
Procedure, shortened: as §1

NCI-H1650 = system: NCI-H1650
Procedure, shortened: as §1

Nc1cccc2c1CN(C1CCC(=O)NC1=O)C2=O (configuration not stated) [Lenalidomide] + Nc1nc2[nH]cc(CCc3ccc(C(=O)N[C@@H](CCC(=O)O)C(=O)O)cc3)c2c(=O)[nH]1 [Pemetrexed] (partner 0.2 µM)
relative viability (NCI-H1993; first compound 0.253 µM): 0.554
relative viability (NCI-H1993; first compound 0.8 µM): 0.561
relative viability (NCI-H1993; first compound 2.53 µM): 0.63
relative viability (NCI-H1993; first compound 8 µM): 0.452
relative viability (NCI-H650; first compound 0.253 µM): 0.902
relative viability (NCI-H650; first compound 0.8 µM): 0.914
relative viability (NCI-H650; first compound 2.53 µM): 1.07
relative viability (NCI-H650; first compound 8 µM): 0.841
relative viability (BEN; first compound 0.253 µM): 0.787
relative viability (BEN; first compound 0.8 µM): 0.608
relative viability (BEN; first compound 2.53 µM): 0.737
relative viability (BEN; first compound 8 µM): 0.673
relative viability (LU99A; first compound 0.253 µM): 0.188
relative viability (LU99A; first compound 0.8 µM): 0.183
relative viability (LU99A; first compound 2.53 µM): 0.169
relative viability (LU99A; first compound 8 µM): 0.169
relative viability (HOP-62; first compound 0.253 µM): 0.356
relative viability (HOP-62; first compound 0.8 µM): 0.376
relative viability (HOP-62; first compound 2.53 µM): 0.287
relative viability (HOP-62; first compound 8 µM): 0.381
relative viability (NCI-H2347; first compound 0.253 µM): 0.405
relative viability (NCI-H2347; first compound 0.8 µM): 0.435
relative viability (NCI-H2347; first compound 2.53 µM): 0.415
relative viability (NCI-H2347; first compound 8 µM): 0.431
relative viability (ChaGo-K-1; first compound 0.253 µM): 0.256
relative viability (ChaGo-K-1; first compound 0.8 µM): 0.255
relative viability (ChaGo-K-1; first compound 2.53 µM): 0.274
relative viability (ChaGo-K-1; first compound 8 µM): 0.26
relative viability (NCI-H1793; first compound 0.253 µM): 0.921
relative viability (NCI-H1793; first compound 2.53 µM): 1.15
relative viability (NCI-H1793; first compound 8 µM): 0.411
relative viability (NCI-H441; first compound 0.253 µM): 0.27
relative viability (NCI-H441; first compound 0.8 µM): 0.273
relative viability (NCI-H441; first compound 2.53 µM): 0.268
relative viability (NCI-H441; first compound 8 µM): 0.242
relative viability (NCI-H2009; first compound 0.253 µM): 0.988
relative viability (NCI-H2009; first compound 0.8 µM): 1.05
relative viability (NCI-H2009; first compound 2.53 µM): 1
relative viability (NCI-H2009; first compound 8 µM): 1.08
relative viability (LXF-289; first compound 0.253 µM): 0.904
relative viability (LXF-289; first compound 0.8 µM): 1.13
relative viability (LXF-289; first compound 2.53 µM): 0.939
relative viability (LXF-289; first compound 8 µM): 1.06
relative viability (CAL-12T; first compound 0.253 µM): 1.18
relative viability (CAL-12T; first compound 0.8 µM): 1.32
relative viability (CAL-12T; first compound 2.53 µM): 1.67
relative viability (CAL-12T; first compound 8 µM): 1.57
relative viability (COR-L 105; first compound 0.253 µM): 1.21
relative viability (COR-L 105; first compound 0.8 µM): 1.16
relative viability (COR-L 105; first compound 2.53 µM): 1.22
relative viability (COR-L 105; first compound 8 µM): 1.2
relative viability (NCI-H1975; first compound 0.253 µM): 0.29
relative viability (NCI-H1975; first compound 0.8 µM): 0.303
relative viability (NCI-H1975; first compound 2.53 µM): 0.322
relative viability (NCI-H1975; first compound 8 µM): 0.332
relative viability (NCI-H358; first compound 0.8 µM): 0.197
relative viability (NCI-H358; first compound 2.53 µM): 0.182
relative viability (NCI-H358; first compound 8 µM): 0.179
relative viability (SK-MES-1; first compound 0.253 µM): 0.91
relative viability (SK-MES-1; first compound 0.8 µM): 0.823
relative viability (SK-MES-1; first compound 2.53 µM): 0.934
relative viability (SK-MES-1; first compound 8 µM): 0.888
relative viability (NCI-H2342; first compound 0.253 µM): 0.868
relative viability (NCI-H2342; first compound 0.8 µM): 0.774
relative viability (NCI-H2342; first compound 2.53 µM): 0.771
relative viability (NCI-H2342; first compound 8 µM): 0.577
relative viability (EPLC-272H; first compound 0.253 µM): 0.328
relative viability (EPLC-272H; first compound 2.53 µM): 0.356
relative viability (EPLC-272H; first compound 8 µM): 0.359
relative viability (NCI-H460; first compound 0.253 µM): 0.0811
relative viability (NCI-H460; first compound 0.8 µM): 0.068
relative viability (NCI-H460; first compound 2.53 µM): 0.0659
relative viability (NCI-H460; first compound 8 µM): 0.0603
relative viability (A-427; first compound 0.253 µM): 0.989
relative viability (A-427; first compound 0.8 µM): 0.931
relative viability (A-427; first compound 2.53 µM): 1.05
relative viability (A-427; first compound 8 µM): 0.993
relative viability (NCI-H1395; first compound 0.253 µM): 0.875
relative viability (NCI-H1395; first compound 2.53 µM): 0.948
relative viability (NCI-H1395; first compound 8 µM): 0.874
relative viability (LCLC-103H; first compound 0.253 µM): 0.488
relative viability (LCLC-103H; first compound 0.8 µM): 0.476
relative viability (LCLC-103H; first compound 2.53 µM): 0.474
relative viability (LCLC-103H; first compound 8 µM): 0.458
relative viability (NCI-H1666; first compound 0.253 µM): 0.801
relative viability (NCI-H1666; first compound 0.8 µM): 0.878
relative viability (NCI-H1666; first compound 2.53 µM): 0.873
relative viability (NCI-H1666; first compound 8 µM): 0.826
relative viability (NCI-H1650; first compound 0.253 µM): 0.357
relative viability (NCI-H1650; first compound 0.8 µM): 0.357
relative viability (NCI-H1650; first compound 2.53 µM): 0.366
relative viability (NCI-H1650; first compound 8 µM): 0.53
